Results published in paper PMC11655547, “Dual functions of silibinin in attenuating aortic dissection via regulating iron homeostasis and endoplasmic reticulum stress against ferroptosis” (Cell Death & Disease, 2024).

Molecular target: T1, HMOX1 (heme oxygenase 1) (Homo sapiens, UniProt P09601)
T1 sequence (P09601 1-288): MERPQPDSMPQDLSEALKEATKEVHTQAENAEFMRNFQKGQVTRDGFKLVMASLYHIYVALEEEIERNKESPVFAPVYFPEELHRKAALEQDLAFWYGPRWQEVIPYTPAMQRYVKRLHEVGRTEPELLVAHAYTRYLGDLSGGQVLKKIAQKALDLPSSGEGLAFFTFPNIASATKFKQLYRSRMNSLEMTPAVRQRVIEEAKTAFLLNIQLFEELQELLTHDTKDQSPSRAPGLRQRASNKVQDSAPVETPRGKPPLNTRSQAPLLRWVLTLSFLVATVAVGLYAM
Assay: SPR ([…] SIL); supported by CETSA and DARTS
Format: binding

Kd: 46 µM
Compound: COc1cc(C2Oc3cc([C@H]4Oc5cc(O)cc(O)c5C(=O)[C@@H]4O)ccc3OC2CO)ccc1O (stereo partly shown) [SIL, Silibinin]
